# Assay results published in US9783532B2, “Molecules having certain pesticidal utilities, and intermediates, compositions, and processes related thereto” (Dow AgroSciences LLC, priority 2013, dated 2017).
# Columns and labels:
# [1] = tested on: Cabbage Looper (Trichoplusia ni) ("CL"); test: Bioassay on cabbage looper (CL), 128-well diet tray assay; assay type: in vivo; conditions: 168 h, 50 μg/cm^2 on artificial diet, second instar CL larvae, 25° C., five to seven days, average of eight wells, read-out: CL % Control (or Mortality) rating
# Outline: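 Percent mortality, averaged across eight replicate wells, was read after five to seven days at 25 °C under a 14:10 photoperiod. Each well held one to five second-instar T. ni on diet carrying a dried 50 μg/cm^2 dose applied in acetone-water 90:10.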
# [2] = tested on: Beet Armyworm (Spodoptera exigua) ("BAW"); test: Bioassay on beet armyworm (BAW), 128-well diet tray assay; assay type: in vivo; conditions: 168 h, 50 μg/cm^2 on artificial diet, second instar BAW larvae, 25° C., five to seven days, average of eight wells, read-out: BAW % Control (or Mortality) rating
# Outline: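 Percent mortality, averaged across eight wells, was read after five to seven days at 25° C. under 14:10 light-dark. Each well held one to five second-instar larvae on artificial diet that had been treated with 50 μg/cm^2 compound in 90:10 acetone-water and dried.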
SMILES,mortality at 50 µg/cm2 [1],mortality at 50 µg/cm2 [2]
"Cc1ccc(N2C(=O)CS/C2=N\C(=O)NCCc2cccc(-c3ncn(-c4ccc(OC(F)(F)F)cc4)n3)c2)c(C(C)C)c1 [P84, (Z)-1-(3-(2-isopropyl-4-methylphenyl)-4-oxothiazolidin-2-ylidene)-3-(3-(1-(4-(trifluoromethoxy)phenyl)-1H-1,2,4-triazol-3-yl)phenethyl)urea]",50 to 100%,50 to 100%
"CC(C)c1cc(F)ccc1N1C(=O)CS/C1=N\C(=O)NCCc1cccc(-c2ncn(-c3ccc(OC(F)(F)F)cc3)n2)c1 [P85, (Z)-1-(3-(4-fluoro-2-isopropylphenyl)-4-oxothiazolidin-2-ylidene)-3-(3-(1-(4-(trifluoromethoxy)phenyl)-1H-1,2,4-triazol-3-yl)phenethyl)urea]",50 to 100%,50 to 100%
"COc1ccc(N2C(=O)CS/C2=N\C(=O)NCCc2cccc(-c3ncn(-c4ccc(OC(F)(F)F)cc4)n3)c2)c(C)c1 [P87, (Z)-1-(3-(4-methoxy-2-methylphenyl)-4-oxothiazolidin-2-ylidene)-3-(3-(1-(4-(trifluoromethoxy)phenyl)-1H-1,2,4-triazol-3-yl)phenethyl)urea]",50 to 100%,50 to 100%
"Cc1ccccc1N1C(=O)CS/C1=N\C(=O)NCCCc1ccc(-c2ncn(-c3ccc(OC(F)(F)F)cc3)n2)cc1 [P92, (Z)-1-(4-oxo-3-(o-tolyl)thiazolidin-2-ylidene)-3-(3-(4-(1-(4-(trifluoromethoxy)phenyl)-1H-1,2,4-triazol-3-yl)phenyl)propyl)urea]",50 to 100%,50 to 100%
"CCc1ccccc1N1C(=O)CS/C1=N\C(=O)NCCCc1ccc(-c2ncn(-c3ccc(OC(F)(F)F)cc3)n2)cc1 [P93, P510, (Z)-1-(3-(2-ethylphenyl)-4-oxothiazolidin-2-ylidene)-3-(3-(4-(1-(4-(trifluoromethoxy)phenyl)-1H-1,2,4-triazol-3-yl)phenyl)propyl)urea]",50 to 100%,50 to 100%
"CC(C)c1ccccc1N1C(=O)CS/C1=N\C(=O)NCCCc1ccc(-c2ncn(-c3ccc(OC(F)(F)F)cc3)n2)cc1 [P94, P197, (Z)-1-(3-(2-isopropylphenyl)-4-oxothiazolidin-2-ylidene)-3-(3-(4-(1-(4-(trifluoromethoxy)phenyl)-1H-1,2,4-triazol-3-yl)phenyl)propyl)urea]",50 to 100%,50 to 100%
"CCCc1ccc(C)cc1N1C(=O)CS/C1=N\C(=O)NCCCc1ccc(-c2ncn(-c3ccc(OC(F)(F)F)cc3)n2)cc1 [P99, P830, (Z)-1-(3-(5-methyl-2-propylphenyl)-4-oxothiazolidin-2-ylidene)-3-(3-(4-(1-(4-(trifluoromethoxy)phenyl)-1H-1,2,4-triazol-3-yl)phenyl)propyl)urea]",50 to 100%,50 to 100%
"Cc1ccc(N2C(=O)CS/C2=N\C(=O)NCCCc2ccc(-c3ncn(-c4ccc(OC(F)(F)F)cc4)n3)cc2)c(C(C)C)c1 [P102, (Z)-1-(3-(2-isopropyl-4-methylphenyl)-4-oxothiazolidin-2-ylidene)-3-(3-(4-(1-(4-(trifluoromethoxy)phenyl)-1H-1,2,4-triazol-3-yl)phenyl)propyl)urea]",50 to 100%,50 to 100%
"CC(C)c1cc(F)ccc1N1C(=O)CS/C1=N\C(=O)NCCCc1ccc(-c2ncn(-c3ccc(OC(F)(F)F)cc3)n2)cc1 [P103, P1150, (Z)-1-(3-(4-fluoro-2-isopropylphenyl)-4-oxothiazolidin-2-ylidene)-3-(3-(4-(1-(4-(trifluoromethoxy)phenyl)-1H-1,2,4-triazol-3-yl)phenyl)propyl)urea]",50 to 100%,50 to 100%
"COc1ccc(N2C(=O)CS/C2=N\C(=O)NCCCc2ccc(-c3ncn(-c4ccc(OC(F)(F)F)cc4)n3)cc2)c(C)c1 [P105, (Z)-1-(3-(4-methoxy-2-methylphenyl)-4-oxothiazolidin-2-ylidene)-3-(3-(4-(1-(4-(trifluoromethoxy)phenyl)-1H-1,2,4-triazol-3-yl)phenyl)propyl)urea]",50 to 100%,50 to 100%
"Cc1ccccc1N1C(=O)CS/C1=N\C(=O)NCCCc1cccc(-c2ncn(-c3ccc(OC(F)(F)F)cc3)n2)c1 [P118, (Z)-1-(4-oxo-3-(o-tolyl)thiazolidin-2-ylidene)-3-(3-(3-(1-(4-(trifluoromethoxy)phenyl)-1H-1,2,4-triazol-3-yl)phenyl)propyl)urea]",50 to 100%,50 to 100%
"CCc1ccccc1N1C(=O)CS/C1=N\C(=O)NCCCc1cccc(-c2ncn(-c3ccc(OC(F)(F)F)cc3)n2)c1 [P119, (Z)-1-(3-(2-ethylphenyl)-4-oxothiazolidin-2-ylidene)-3-(3-(3-(1-(4-(trifluoromethoxy)phenyl)-1H-1,2,4-triazol-3-yl)phenyl)propyl)urea]",50 to 100%,50 to 100%
"CC(C)c1ccccc1N1C(=O)CS/C1=N\C(=O)NCCCc1cccc(-c2ncn(-c3ccc(OC(F)(F)F)cc3)n2)c1 [P120, (Z)-1-(3-(2-isopropylphenyl)-4-oxothiazolidin-2-ylidene)-3-(3-(3-(1-(4-(trifluoromethoxy)phenyl)-1H-1,2,4-triazol-3-yl)phenyl)propyl)urea]",50 to 100%,50 to 100%
"Cc1ccc(C(C)C)c(N2C(=O)CS/C2=N\C(=O)NCCCc2cccc(-c3ncn(-c4ccc(OC(F)(F)F)cc4)n3)c2)c1 [P124, (Z)-1-(3-(2-isopropyl-5-methylphenyl)-4-oxothiazolidin-2-ylidene)-3-(3-(3-(1-(4-(trifluoromethoxy)phenyl)-1H-1,2,4-triazol-3-yl)phenyl)propyl)urea]",50 to 100%,50 to 100%
"CCCc1ccc(C)cc1N1C(=O)CS/C1=N\C(=O)NCCCc1cccc(-c2ncn(-c3ccc(OC(F)(F)F)cc3)n2)c1 [P125, (Z)-1-(3-(5-methyl-2-propylphenyl)-4-oxothiazolidin-2-ylidene)-3-(3-(3-(1-(4-(trifluoromethoxy)phenyl)-1H-1,2,4-triazol-3-yl)phenyl)propyl)urea]",50 to 100%,50 to 100%
"CCc1cccc(C)c1N1C(=O)CS/C1=N\C(=O)NCCCc1cccc(-c2ncn(-c3ccc(OC(F)(F)F)cc3)n2)c1 [P127, (Z)-1-(3-(2-ethyl-6-methylphenyl)-4-oxothiazolidin-2-ylidene)-3-(3-(3-(1-(4-(trifluoromethoxy)phenyl)-1H-1,2,4-triazol-3-yl)phenyl)propyl)urea]",50 to 100%,50 to 100%
"Cc1ccc(N2C(=O)CS/C2=N\C(=O)NCCCc2cccc(-c3ncn(-c4ccc(OC(F)(F)F)cc4)n3)c2)c(C(C)C)c1 [P128, (Z)-1-(3-(2-isopropyl-4-methylphenyl)-4-oxothiazolidin-2-ylidene)-3-(3-(3-(1-(4-(trifluoromethoxy)phenyl)-1H-1,2,4-triazol-3-yl)phenyl)propyl)urea]",50 to 100%,50 to 100%
"CC(C)c1cc(F)ccc1N1C(=O)CS/C1=N\C(=O)NCCCc1cccc(-c2ncn(-c3ccc(OC(F)(F)F)cc3)n2)c1 [P129, (Z)-1-(3-(4-fluoro-2-isopropylphenyl)-4-oxothiazolidin-2-ylidene)-3-(3-(3-(1-(4-(trifluoromethoxy)phenyl)-1H-1,2,4-triazol-3-yl)phenyl)propyl)urea]",50 to 100%,50 to 100%
"COc1ccc(N2C(=O)CS/C2=N\C(=O)NCCCc2cccc(-c3ncn(-c4ccc(OC(F)(F)F)cc4)n3)c2)c(C)c1 [P131, (Z)-1-(3-(4-methoxy-2-methylphenyl)-4-oxothiazolidin-2-ylidene)-3-(3-(3-(1-(4-(trifluoromethoxy)phenyl)-1H-1,2,4-triazol-3-yl)phenyl)propyl)urea]",50 to 100%,50 to 100%
"Cc1ccccc1N1C(=O)CS/C1=N\C(=O)NCCCCc1cccc(-c2ncn(-c3ccc(OC(F)(F)F)cc3)n2)c1 [P170, (Z)-1-(4-oxo-3-(o-tolyl)thiazolidin-2-ylidene)-3-(4-(3-(1-(4-(trifluoromethoxy)phenyl)-1H-1,2,4-triazol-3-yl)phenyl)butyl)urea]",50 to 100%,0%
"CCc1ccccc1N1C(=O)CS/C1=N\C(=O)NCCCCc1cccc(-c2ncn(-c3ccc(OC(F)(F)F)cc3)n2)c1 [P171, (Z)-1-(3-(2-ethylphenyl)-4-oxothiazolidin-2-ylidene)-3-(4-(3-(1-(4-(trifluoromethoxy)phenyl)-1H-1,2,4-triazol-3-yl)phenyl)butyl)urea]",50 to 100%,50 to 100%
"CC(C)c1ccccc1N1C(=O)CS/C1=N\C(=O)NCCCCc1cccc(-c2ncn(-c3ccc(OC(F)(F)F)cc3)n2)c1 [P172, (Z)-1-(3-(2-isopropylphenyl)-4-oxothiazolidin-2-ylidene)-3-(4-(3-(1-(4-(trifluoromethoxy)phenyl)-1H-1,2,4-triazol-3-yl)phenyl)butyl)urea]",50 to 100%,50 to 100%
"Cc1ccc(C(C)C)c(N2C(=O)CS/C2=N\C(=O)NCCCCc2cccc(-c3ncn(-c4ccc(OC(F)(F)F)cc4)n3)c2)c1 [P176, (Z)-1-(3-(2-isopropyl-5-methylphenyl)-4-oxothiazolidin-2-ylidene)-3-(4-(3-(1-(4-(trifluoromethoxy)phenyl)-1H-1,2,4-triazol-3-yl)phenyl)butyl)urea]",50 to 100%,50 to 100%
